In paper PMC10096376, “Insecticidal and Synergistic Potential of Three Monoterpenoids against the Yellow Fever Mosquito, Aedes aegypti (Diptera: Culicidae), and the House Fly, Musca domestica (Diptera: Muscidae)” (Molecules, 2023):
Several values for one entry are separate records, joined by “and”; a condition that tells them apart may be missing. Equal values may be shown once. Read-outs that look alike come from different tables or passages of the source.

Columns and labels:
[1] = system: rat; conditions: cited from earlier work
[2] = molecular target: acetylcholinesterase (Musca domestica, UniProt Q7YWJ9); experiment: In vitro inhibition of acetylcholinesterase (Ellman), head homogenate; type: biochemical
Chain of acetylcholinesterase (Musca domestica, UniProt Q7YWJ9) (Q7YWJ9 81-660): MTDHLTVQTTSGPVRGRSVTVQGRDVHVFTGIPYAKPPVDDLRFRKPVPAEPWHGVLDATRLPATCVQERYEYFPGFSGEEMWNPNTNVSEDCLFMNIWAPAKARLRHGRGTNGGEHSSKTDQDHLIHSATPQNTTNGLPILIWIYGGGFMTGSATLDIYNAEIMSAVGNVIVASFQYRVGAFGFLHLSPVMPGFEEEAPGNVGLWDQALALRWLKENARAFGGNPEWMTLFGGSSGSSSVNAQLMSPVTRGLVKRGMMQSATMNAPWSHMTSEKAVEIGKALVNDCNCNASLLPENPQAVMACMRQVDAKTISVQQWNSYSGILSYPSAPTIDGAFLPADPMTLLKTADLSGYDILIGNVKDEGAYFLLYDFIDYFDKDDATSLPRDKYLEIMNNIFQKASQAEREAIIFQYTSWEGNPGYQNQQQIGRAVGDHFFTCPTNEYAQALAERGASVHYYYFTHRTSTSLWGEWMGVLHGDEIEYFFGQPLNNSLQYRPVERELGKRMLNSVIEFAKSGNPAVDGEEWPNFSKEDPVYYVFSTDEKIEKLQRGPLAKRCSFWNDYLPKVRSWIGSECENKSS
Description: (§1) Acetylcholinesterase inhibition was conducted on homogenates of whole-body Ae. aegypti and M. domestica heads using Ellman’s method. For Ae. aegypti, 10 whole female adults were placed in 2 mL microcentrifuge screw cap tubes with 3–5.2 mm zircon/silica beads and homogenized in 500 μL of sodium phosphate buffer (100 mM, pH 7.8) using a Precellys Evolution bead beater (Bertin Corp., Rockville, MD, USA) set to two 15-s pulses of 5600 rpm. Afterward, 500 μL of Triton X-100 buffer (100 mM sodium phosphate, pH 7.8, 0.6% Triton X-100) was added to each tube (final Triton X-100 concentration: 0.3%), inverted several times to mix up the sample, and then centrifuged at 10,000× g for 4 min at 4 °C. The supernatant was used as the enzyme source. The same process was carried out with M. domestica, except three heads were processed in a 1000:1000 μL sodium phosphate buffer and Triton X-100 buffer in the same manner as just described.
Concentration responses were conducted in the wells of a 96-well, clear, flat-bottomed plate. Inhibitor solutions of methomyl or monoterpenoids were first dissolved in DMSO (dimethyl sulfoxide) and then diluted in sodium phosphate buffer (100 mM, pH 7.8, DMSO concentration of 1%). A volume of 10 μL of the inhibitor solution was added to each well, along with 90 μL of sodium phosphate buffer, and finally 10 μL of homogenate. This was incubated on a plate shaker at 400 rpm for 10 min at room temperature. The final concentrations for methomyl were 100 μM, 10 μM, 1 μM, 100 nM, 10 nM, 1 nM, and 0 nM. For the monoterpenoids, the same range was used except the top concentration was 1 mM and the bottom non-zero concentration was 10 nM. The final concentration of DMSO in all wells was 0.09%.
After the 10-min incubation, 100 μL of Ellman’s reagent prepared in sodium phosphate buffer and each corresponding inhibitor concentration were added to the wells using a multichannel pipette.
(§2) Dose responses were modeled via probit analysis, and their resulting estimates were obtained. […] A control correction option (OPTC command) was used to account for responses to the vehicle control treatments. Co-toxicity values were calculated by the method of [29]. A co-toxicity factor of >+20 signifies potentiation, <−20 antagonism, and −20 to +20 additive.

[3] = system: Aedes aegypti; conditions: for LD10 (95% CI) / LD50 (95% CI) / LD90 (95% CI): 24 h, topical, adult females, susceptible strain
[4] = system: Aedes aegypti; experiment: Co-toxicity assay with permethrin (topical); conditions: for 1-h knockdown Co-Toxicity Factor / 24-h mortality Co-Toxicity Factor: >+20 potentiation, <−20 antagonism, −20 to +20 additive
Description: (§3) For Ae. aegypti, synergism assays were performed similar to the topical applications described previously, with the following modifications: 2 doses (2 µg/mosquito and 10 µg/mosquito) of each monoterpenoid were applied as synergists, similar to previous studies exploring the synergistic potential of natural products in combination with an intermediate dose-level of insecticide alone.
(§4) Mosquitoes were transferred to deli cups and kept at a controlled temperature and humidity (the same conditions as described for the topical application of insecticides and monoterpenoids alone). Again, a minimum of 3 separate rearing cohorts were used among replicates of each dose combination.
as §2

[5] = system: Musca domestica; experiment: Co-toxicity assay with permethrin (topical); type: in vivo
Description: […]. Each dose was formulated in a total volume of 1.5 mL of acetone. A dose of permethrin that produced approximately 50% mortality (18 ng) was used as the treatment. Female flies were sorted into groups of 20 per synergism assay and dosed as previously mentioned (i.e., the same way as in the topical toxicity assays). Flies were assessed for mortality at 24 h.

[6] = under a mercury lamp; cited from earlier work
[7] = cited from earlier work
[8] = system: Aedes aegypti; conditions: for 1-h knockdown Co-Toxicity Factor / 24-h mortality Co-Toxicity Factor / 48-h mortality Co-Toxicity Factor: >+20 potentiation, <−20 antagonism, −20 to +20 additive
Description: as §3, §4, §2

[9] = system: rat; conditions: in vivo; cited from earlier work
[10] = system: Musca domestica
[11] = molecular target: T1, acetylcholinesterase (Aedes aegypti, UniProt Q6A2E2); experiment: In vitro inhibition of acetylcholinesterase (Ellman), whole-body homogenate; type: biochemical; conditions: Ae. aegypti preparation, corrected for total protein; read-out: IC50 (95% CI)
T1 construct: The supernatant was used as the enzyme source; from tissue; host or cells: whole bodies of adult female Aedes aegypti, Orlando strain; Triton X-100 supernatant
T1 sequence (Q6A2E2 1-702): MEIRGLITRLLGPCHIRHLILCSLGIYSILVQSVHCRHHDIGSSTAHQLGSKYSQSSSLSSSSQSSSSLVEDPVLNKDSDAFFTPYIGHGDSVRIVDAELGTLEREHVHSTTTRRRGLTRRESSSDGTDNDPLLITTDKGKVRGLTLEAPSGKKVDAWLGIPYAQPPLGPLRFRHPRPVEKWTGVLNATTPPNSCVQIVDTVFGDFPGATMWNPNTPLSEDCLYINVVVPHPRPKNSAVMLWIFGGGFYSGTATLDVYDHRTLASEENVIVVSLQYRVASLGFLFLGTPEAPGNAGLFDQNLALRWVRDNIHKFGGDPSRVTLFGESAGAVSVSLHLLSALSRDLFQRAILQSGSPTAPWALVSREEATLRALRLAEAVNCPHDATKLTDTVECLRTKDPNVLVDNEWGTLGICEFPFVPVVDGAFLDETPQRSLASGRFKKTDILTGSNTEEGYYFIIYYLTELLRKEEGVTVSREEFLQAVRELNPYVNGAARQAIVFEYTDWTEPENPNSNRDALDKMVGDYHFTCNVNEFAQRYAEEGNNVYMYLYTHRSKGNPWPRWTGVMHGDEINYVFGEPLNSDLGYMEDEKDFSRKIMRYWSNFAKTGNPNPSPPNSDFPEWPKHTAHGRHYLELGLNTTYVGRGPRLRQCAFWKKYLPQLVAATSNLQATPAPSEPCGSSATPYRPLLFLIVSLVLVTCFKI
Description: as §1
Concentration responses were conducted in the wells of a 96-well, clear, flat-bottomed plate. Inhibitor solutions of methomyl or monoterpenoids were first dissolved in DMSO (dimethyl sulfoxide) and then diluted in sodium phosphate buffer (100 mM, pH 7.8, DMSO concentration of 1%). […]
Dose responses were modeled via probit analysis, and their resulting estimates were obtained. […] Co-toxicity values were calculated by the method of [29]. […]

[12] = system: rabbit; conditions: ref 32,33 (L-fenchone), 35,36 (Permethrin), 37 (Methomyl); cited from earlier work
[13] = 10 μg synergist per Ae. aegypti
[14] = 10.2 μg PBO, 70 μg carvone, 190 μg menthone, 80 μg fenchone per fly
[15] = near-sublethal synergist dose + permethrin, >+20 potentiation, <−20 antagonism, −20 to +20 additive
[16] = 24 h, topical, adult females, susceptible strain

C=C(C)[C@@H]1CC=C(C)C(=O)C1 [Carvone, L-carvone]
Dermal LD50 [1]: >4000 (rt) mg compound per kg body weight | inhibition of AChE ([2]; at 1 mM, M. domestica preparation): 11.1 ± 2.9% | LD10 (95% CI) [3]: 3900 (1900–5200) b ng/mg body weight | LD50 (95% CI) [3]: 7300 (6700–7900) c ng/mg body weight | LD90 (95% CI) [3]: 14,200 (11,000–26,600) c ng/mg body weight | times as toxic as fenchone ([3]; at LD10): about 1.9 | times as toxic as fenchone ([3]; at LD50): about 1.5 | times as toxic as fenchone ([3]; at LD90): about 3.0 | 1-h% Mean Knockdown ± SEM, Mixture ([4]; 2 μg synergist + permethrin 0.6 ng/mosquito): 100 ± 0% | 1-h knockdown Co-Toxicity Factor ([4]; 2 μg synergist + permethrin): 23.5 | 24-h mortality Co-Toxicity Factor ([4]; 2 μg synergist + permethrin): 83 | 1-h% Mean Knockdown ± SEM, Synergist Alone ([4]; 2 μg synergist per Ae. aegypti): 5 ± 5% | 24-h% Mean Mortality ± SEM, Synergist Alone ([4]; 2 μg synergist per Ae. aegypti): 5 ± 2.9% | 1-h% Mean Knockdown ± SEM, Mixture ([4]; 10 μg synergist + permethrin 0.6 ng/mosquito): 100 ± 0% | 1-h knockdown Co-Toxicity Factor ([4]; 10 μg synergist + permethrin): 4 | 24-h mortality Co-Toxicity Factor ([4]; 10 μg synergist + permethrin): 76 | 1-h% Mean Knockdown ± SEM, Synergist Alone [4, 13]: 20 ± 5.8% | 24-h% Mean Mortality ± SEM, Synergist Alone [4, 13]: 7.5 ± 2.5% | times as strong a synergist of permethrin as PBO ([4]; 24-h mortality, 2 μg synergist): 3.3 | 1-h% Mean Knockdown ± SEM, Synergist Alone [5, 14]: 16 ± 11.8% | 24-h% Mean Mortality ± SEM, Synergist Alone [5, 14]: 0 ± 0% | times as potent a synergist of permethrin as PBO ([5]; 24-h mortality): 1.2 | 1-h% Mean Knockdown ± SEM, Mixture ([5]; near-sublethal synergist dose (10.2 μg PBO, 70 μg carvone, 190 μg menthone, 80 μg fenchone) + permethrin 18 ng): 100 ± 0% | 1-h knockdown Co-Toxicity Factor [5, 15]: 3.2 | 24-h mortality Co-Toxicity Factor [5, 15]: 65.6 | half-life [6]: 23 to 27.8 h | half-life ([7]; acidic conditions): ≤ 108 h | 1-h% Mean Knockdown ± SEM, Synergist Alone ([8]; 2 μg applied): 5 ± 5% | 24-h% Mean Mortality ± SEM, Synergist Alone ([8]; 2 μg applied): 5 ± 2.9% | 48-h% Mean Mortality ± SEM, Synergist Alone ([8]; 2 μg applied): 5 ± 2.9% | 1-h% Mean Knockdown ± SEM, Mixture ([8]; 2 μg synergist + methomyl 6 ng/mosquito): 96.7 ± 3.3% | 1-h knockdown Co-Toxicity Factor ([8]; 2 μg synergist + methomyl): 4.5 | 24-h mortality Co-Toxicity Factor ([8]; 2 μg synergist + methomyl): 23 | 48-h mortality Co-Toxicity Factor ([8]; 2 μg synergist + methomyl): 24 | 1-h% Mean Knockdown ± SEM, Synergist Alone ([8]; 10 μg applied): 20 ± 5.8% | 24-h% Mean Mortality ± SEM, Synergist Alone ([8]; 10 μg applied): 7.5 ± 2.5% | 48-h% Mean Mortality ± SEM, Synergist Alone ([8]; 10 μg applied): 15 ± 2.9% | 1-h% Mean Knockdown ± SEM, Mixture ([8]; 10 μg synergist + methomyl 6 ng/mosquito): 100 ± 0% | 1-h knockdown Co-Toxicity Factor ([8]; 10 μg synergist + methomyl): −7 | 24-h mortality Co-Toxicity Factor ([8]; 10 μg synergist + methomyl): 28 | 48-h mortality Co-Toxicity Factor ([8]; 10 μg synergist + methomyl): 8 | times as effective a synergist of methomyl as PBO ([8]; 24-h mortality, 2 μg synergist): 1.7 | Oral LD50 [9]: 5400 (rt) mg compound per kg body weight | LD10 (95% CI) [10, 16]: 3300 (3100–3400) b ng/mg body weight | LD50 (95% CI) [10, 16]: 4300 (4200–4400) b ng/mg body weight | LD90 (95% CI) [10, 16]: 5600 (5300–5900) b ng/mg body weight | times as toxic as fenchone ([10]; at LD10): 2.7 | times as toxic as menthone ([10]; at LD10): 1.6 | times as toxic as fenchone ([10]; at LD50): 3.1 | times as toxic as menthone ([10]; at LD50): 1.6 | times as toxic as fenchone ([10]; at LD90): 3.6 | times as toxic as menthone ([10]; at LD90): 1.6

CNC(=O)ON=C(C)SC [Methomyl, methomyl, reference compound]
IC50 [11]: 2500 nM and 1700 nM | inhibition at 100 µM ([2]; at 100 µM, preparation not given, follows the M. domestica values, read-out: inhibition of AChE): 99.4 ± 0.1% | LD10 (95% CI) [3]: 0.97 (0.27–1.6) a ng/mg body weight | LD50 (95% CI) [3]: 2.7 (1.6–4.3) b ng/mg body weight | LD90 (95% CI) [3]: 7.55 (4.7–22.5) b ng/mg body weight | Dermal LD50 [12]: 5880 (rb) mg compound per kg body weight | aerobic soil half-life [7]: approximately 14 d | 1-h% Mean Knockdown ± SEM, Methomyl Alone ([8]; methomyl 6 ng/mosquito): 87.5 ± 9.5% | 24-h% Mean Mortality ± SEM, Methomyl Alone ([8]; methomyl 6 ng/mosquito): 57.5 ± 25.3% | 48-h% Mean Mortality ± SEM, Methomyl Alone ([8]; methomyl 6 ng/mosquito): 65 ± 21.8% | Oral LD50 [9]: 17–24 (rt) mg compound per kg body weight | LD50 ([10]; topical, sufficient toxicity not observed at highest doses applied): > 100 ng
